Biological target: T1, Fascin1 (Homo sapiens, UniProt Q16658)
T1 construct: gene FSCN1; full-length human Fascin1; in-house protein from pGEX-6P-2A (N-terminal GST, 3C site) in E. coli BL21-gold(DE3), GST cleaved with PreScission
Assay: intrinsic fluorescence titration
Type: binding

Cc1nnc(C(=O)NC(C)(C)c2nc(C(=O)NCc3ccc(F)cc3)c(O)c(=O)n2C)o1 [raltegravir]
Kd: 180 ± 10 µM

Reference: article PMC7921938, “The FDA-Approved Antiviral Raltegravir Inhibits Fascin1-Dependent Invasion of Colorectal Tumor Cells In Vitro and In Vivo” (Cancers, 2021)
